Test [1] concerns L1210. Description: Cytotoxicity against mouse L1210 cells after 72 hrs by MTT assay. The test is classed as functional, cell-based. To be noted: L1210, 72 h.
Test [2] deals with L1210. Kind of test: Selectivity index, ratio of IC50 for mouse L1210 cells to IC50 for mouse P815 cells. The test is classed as functional.
Test [3] has as its system L1210. Description: Selectivity index, ratio of IC50 for mouse L1210 cells to IC50 for mouse 4T1 cells. The test is classed as functional.
Test [4] relates to 4T1. Description: Cytotoxicity against mouse 4T1 cells expressing biotin receptor after 72 hrs by MTT assay. The format is functional, cell-based. The note with it: 4T1, 72 h. Background: Tetrazolium dyes change colour on reduction, which living cells bring about.
Test [5] relates to P815. Description: Cytotoxicity against mouse P815 cells expressing biotin receptor after 72 hrs by MTT assay. The test is classed as functional, cell-based. The note with it: P815, 72 h.
In test [6] the test system is P815. Description: Ratio of squamocin IC50 to compound IC50 for mouse P815 cells expressing biotin receptor. The format is functional.
In test [7] the test system is 4T1. Description: Ratio of squamocin IC50 to compound IC50 for mouse 4T1 cells expressing biotin receptor. The format is functional.
Test [8] has as its system 4T1. Kind of test: Ratio of bullatacin IC50 to compound IC50 for mouse 4T1 cells expressing biotin receptor. The test is classed as functional.
Test [9] deals with P815. Description: Ratio of bullatacin IC50 to compound IC50 for mouse P815 cells expressing biotin receptor. The test is classed as functional.

A value given as a limit tells only on which side of the number the result lay.

Broadly, the IC50 is the concentration at which inhibition is half-maximal.

Consider `CCCCCCCCCC[C@H](OC(=O)CCCCCNC(=O)CCCC[C@@H]1SC[C@@H]2NC(=O)N[C@@H]21)[C@H]1CC[C@H]([C@H]2CC[C@H]([C@H](O)CCCCCCCCCC[C@H](CC3=C[C@H](C)OC3=O)OC(=O)CCCCCNC(=O)CCCC[C@@H]3SC[C@@H]4NC(=O)N[C@@H]43)O2)O1`, for which the values for the IC50 in the test with L1210 [1], in the test on 4T1 [4] and in the test with P815 [5] were 1.47 µM, 0.055 µM and 0.75 µM, respectively. The “Ratio IC50” value is reported as 1.96 in the test with L1210 [2] and 26.73 in the test with L1210 [3].
As for `CCCCCC[C@H](O)CCC[C@H](O)[C@H]1CC[C@H]([C@H]2CC[C@H]([C@@H](CCCCCCCCCCCCC3=C[C@H](C)OC3=O)OC(=O)CCCC[C@@H]3SC[C@@H]4NC(=O)N[C@@H]43)O2)O1`, the IC50 with L1210 [1] is 0.72 µM; with 4T1 [4], 2.91 µM; in the test with P815 [5], greater than 20 µM. Besides, the “Ratio IC50” value in the test on L1210 [2] is less than 0.036; in the test on L1210 [3], 0.25.
In the case of `CCCCCC[C@H](O)CCC[C@H](OC(=O)CCCC[C@@H]1SC[C@@H]2NC(=O)N[C@@H]21)[C@H]1CC[C@H]([C@H]2CC[C@H]([C@H](O)CCCCCCCCCCCCC3=C[C@H](C)OC3=O)O2)O1`, the results for the concentration for half-maximal inhibition (IC50) with L1210 [1], in the test with 4T1 [4] and in the test with P815 [5] were 0.96 µM, 0.63 µM and greater than 20 µM, respectively. Further, the “Ratio IC50” value in the test with L1210 [2] is listed as less than 0.048; with L1210 [3], 1.52.
In the same order, the values of `CCCCCC[C@@H](CCC[C@H](O)[C@H]1CC[C@H]([C@H]2CC[C@H]([C@H](O)CCCCCCCCCCCCC3=C[C@H](C)OC3=O)O2)O1)OC(=O)CCCC[C@@H]1SC[C@@H]2NC(=O)N[C@@H]21` are 0.83 µM, 0.049 µM, 1.34 µM, 0.62 and 16.94.
In the same order, the values of `CCCCCC[C@@H](CCC[C@H](O)[C@H]1CC[C@H]([C@H]2CC[C@H]([C@@H](CCCCCCCCCCCCC3=C[C@H](C)OC3=O)OC(=O)CCCC[C@@H]3SC[C@@H]4NC(=O)N[C@@H]43)O2)O1)OC(=O)CCCC[C@@H]1SC[C@@H]2NC(=O)N[C@@H]21` are 1.25 µM, 4.87 µM, greater than 20 µM, less than 0.063 and 0.26.
In the same order, the values of `CCCCCC[C@@H](CCC[C@H](OC(=O)CCCC[C@@H]1SC[C@@H]2NC(=O)N[C@@H]21)[C@H]1CC[C@H]([C@H]2CC[C@H]([C@H](O)CCCCCCCCCCCCC3=C[C@H](C)OC3=O)O2)O1)OC(=O)CCCC[C@@H]1SC[C@@H]2NC(=O)N[C@@H]21` are 5.69 µM, 0.29 µM, greater than 20 µM, less than 0.28 and 19.62.
With `CCCCCC[C@H](O)CCC[C@H](O)[C@H]1CC[C@H]([C@H]2CC[C@H]([C@@H](CCCCCCCCCCCCC3=C[C@H](C)OC3=O)OC(=O)CCCCCNC(=O)CCCC[C@@H]3SC[C@@H]4NC(=O)N[C@@H]43)O2)O1`, the concentration for half-maximal inhibition (IC50) is 1.15 µM in the test on L1210 [1], 0.077 µM in the test on 4T1 [4] and 2.41 µM with P815 [5]. Moreover, the entries for the “Ratio IC50” value in the test on L1210 [2] and in the test on L1210 [3] were 0.48 and 14.94, respectively.
In the same order, the values of `CCCCCC[C@H](O)CCC[C@H](OC(=O)CCCCCNC(=O)CCCC[C@@H]1SC[C@@H]2NC(=O)N[C@@H]21)[C@H]1CC[C@H]([C@H]2CC[C@H]([C@H](O)CCCCCCCCCCCCC3=C[C@H](C)OC3=O)O2)O1` are 1.38 µM, 1.54 µM, greater than 20 µM, less than 0.069 and 0.9.
In the same order, the values of `CCCCCC[C@@H](CCC[C@H](O)[C@H]1CC[C@H]([C@H]2CC[C@H]([C@H](O)CCCCCCCCCCCCC3=C[C@H](C)OC3=O)O2)O1)OC(=O)CCCCCNC(=O)CCCC[C@@H]1SC[C@@H]2NC(=O)N[C@@H]21` are 0.68 µM, 6.57 µM, greater than 20 µM, less than 0.034 and 0.1.
In the same order, the values of `CCCCCC[C@H](O)CCC[C@H](OC(=O)CCCCCNC(=O)CCCC[C@@H]1SC[C@@H]2NC(=O)N[C@@H]21)[C@H]1CC[C@H]([C@H]2CC[C@H]([C@@H](CCCCCCCCCCCCC3=C[C@H](C)OC3=O)OC(=O)CCCCCNC(=O)CCCC[C@@H]3SC[C@@H]4NC(=O)N[C@@H]43)O2)O1` are 0.84 µM, 0.34 µM, 0.93 µM, 0.9 and 2.47.
Consider `CCCCCC[C@@H](CCC[C@H](O)[C@H]1CC[C@H]([C@H]2CC[C@H]([C@@H](CCCCCCCCCCCCC3=C[C@H](C)OC3=O)OC(=O)CCCCCNC(=O)CCCC[C@@H]3SC[C@@H]4NC(=O)N[C@@H]43)O2)O1)OC(=O)CCCCCNC(=O)CCCC[C@@H]1SC[C@@H]2NC(=O)N[C@@H]21`, for which the 50% inhibitory concentration (IC50) was determined as 0.79 µM in the test with L1210 [1], 0.035 µM in the test on 4T1 [4] and 0.75 µM with P815 [5]. The “Ratio IC50” value in the test with P815 [6] was greater than 26; with L1210 [2], 1.05; in the test with L1210 [3], 22.57; with 4T1 [7] it was greater than 10.
Regarding `CCCCCC[C@@H](CCC[C@H](OC(=O)CCCCCNC(=O)CCCC[C@@H]1SC[C@@H]2NC(=O)N[C@@H]21)[C@H]1CC[C@H]([C@H]2CC[C@H]([C@H](O)CCCCCCCCCCCCC3=C[C@H](C)OC3=O)O2)O1)OC(=O)CCCCCNC(=O)CCCC[C@@H]1SC[C@@H]2NC(=O)N[C@@H]21`, the half-inhibitory concentration (IC50) is 1.18 µM with L1210 [1], 1.87 µM in the test on 4T1 [4] and greater than 20 µM in the test on P815 [5]. Moreover, the “Ratio IC50” value with L1210 [2] is recorded as less than 0.059; in the test with L1210 [3] it was 0.63.
As to `CCCCCCCCCC[C@H](O)[C@H]1CC[C@H]([C@H]2CC[C@H]([C@H](O)CCCCCCCCCC[C@H](CC3=C[C@H](C)OC3=O)OC(=O)CCCC[C@@H]3SC[C@@H]4NC(=O)N[C@@H]43)O2)O1`, the IC50 was 1.42 µM in the test with L1210 [1], 0.65 µM in the test on 4T1 [4] and greater than 20 µM with P815 [5]. For the same compound, the “Ratio IC50” value in the test on L1210 [2] is less than 0.071; with L1210 [3], 2.18.
The like results for `CCCCCCCCCC[C@H](O)[C@H]1CC[C@H]([C@H]2CC[C@H]([C@@H](CCCCCCCCCC[C@@H](O)CC3=C[C@H](C)OC3=O)OC(=O)CCCC[C@@H]3SC[C@@H]4NC(=O)N[C@@H]43)O2)O1` were, in that order, 1.37 µM, 0.042 µM, 1.55 µM, 0.88 and 32.62.
In the same order, the values of `CCCCCCCCCC[C@H](OC(=O)CCCC[C@@H]1SC[C@@H]2NC(=O)N[C@@H]21)[C@H]1CC[C@H]([C@H]2CC[C@H]([C@H](O)CCCCCCCCCC[C@@H](O)CC3=C[C@H](C)OC3=O)O2)O1` are 5.79 µM, 1.67 µM, greater than 20 µM, less than 0.29 and 3.47.
In the same order, the values of `CCCCCCCCCC[C@H](O)[C@H]1CC[C@H]([C@H]2CC[C@H]([C@H](O)CCCCCCCCCC[C@H](CC3=C[C@H](C)OC3=O)OC(=O)CCCCCNC(=O)CCCC[C@@H]3SC[C@@H]4NC(=O)N[C@@H]43)O2)O1` are 2.1 µM, 0.053 µM, 0.88 µM, 2.39 and 39.62.
As to `CCCCCCCCCC[C@H](O)[C@H]1CC[C@H]([C@H]2CC[C@H]([C@@H](CCCCCCCCCC[C@@H](O)CC3=C[C@H](C)OC3=O)OC(=O)CCCCCNC(=O)CCCC[C@@H]3SC[C@@H]4NC(=O)N[C@@H]43)O2)O1`, the half-maximal inhibitory concentration (IC50) with L1210 [1] is 1.83 µM; in the test on 4T1 [4], 0.3 µM; with P815 [5], greater than 20 µM. The “Ratio IC50” value with L1210 [2] is listed as less than 0.092; in the test with L1210 [3] it was 6.1.
As to `CCCCCCCCCC[C@H](OC(=O)CCCCCNC(=O)CCCC[C@@H]1SC[C@@H]2NC(=O)N[C@@H]21)[C@H]1CC[C@H]([C@H]2CC[C@H]([C@H](O)CCCCCCCCCC[C@@H](O)CC3=C[C@H](C)OC3=O)O2)O1`, the IC50 with L1210 [1] is 1.09 µM; in the test with 4T1 [4], 0.037 µM; with P815 [5] it was 0.41 µM. Moreover, the “Ratio IC50” value with 4T1 [8] worked out at 3; in the test on L1210 [2] it was 2.66; in the test with P815 [9], 8; in the test with L1210 [3], 29.46.
As to `CCCCCCCCCC[C@H](O)[C@H]1CC[C@H]([C@H]2CC[C@H]([C@@H](CCCCCCCCCC[C@H](CC3=C[C@H](C)OC3=O)OC(=O)CCCCCNC(=O)CCCC[C@@H]3SC[C@@H]4NC(=O)N[C@@H]43)OC(=O)CCCCCNC(=O)CCCC[C@@H]3SC[C@@H]4NC(=O)N[C@@H]43)O2)O1`, the half-maximal inhibitory concentration (IC50) in the test on L1210 [1] was 2.04 µM; with 4T1 [4], 1.06 µM; in the test with P815 [5], greater than 20 µM. In addition, the “Ratio IC50” value in the test on L1210 [2] is given as less than 0.1; with L1210 [3], 1.92.
Take `CCCCCCCCCC[C@@H](O)[C@@H]1CC[C@@H]([C@@H]2CC[C@@H]([C@H](O)CCCCCCCCCC(O)CC3=CC(C)OC3=O)O2)O1` (some centres undefined) [BULLATACIN]: the 50% inhibitory concentration (IC50) was found to be 2.32 µM in the test with L1210 [1], 0.11 µM in the test with 4T1 [4] and 3.48 µM in the test with P815 [5]. Besides, the “Ratio IC50” value in the test on L1210 [2] turned out to be 0.67; with L1210 [3] it was 21.09.

The values are drawn from ChEMBL document CHEMBL3098074, “Synthesis and tumor cell growth inhibitory activity of biotinylated annonaceous acetogenins” (Eur J Med Chem, 2014).
